Measurements as given in PubChem BioAssay AID1259407 (Chemical Carcinogenesis Research Information System (CCRIS), 2018).
Active and inactive are the calls of the source. How the calls were made is not given here.

System: CCRIS mutagenicity, Ames/micronucleus/aberration tests
Assay: CCRIS mutagenicity studies
[1] = Test System: AMES SALMONELLA TYPHIMURIUM, Strain/Indicator: TA98, Metabolic Activation: NONE, Method: PREINCUBATION
[2] = Test System: AMES SALMONELLA TYPHIMURIUM, Strain/Indicator: TA98, Metabolic Activation: NONE, Method: STANDARD PLATE
[3] = Test System: AMES SALMONELLA TYPHIMURIUM, Strain/Indicator: TA100, Metabolic Activation: NONE, Method: PREINCUBATION
[4] = Test System: AMES SALMONELLA TYPHIMURIUM, Strain/Indicator: TA100, Metabolic Activation: NONE, Method: STANDARD PLATE
[5] = Test System: AMES SALMONELLA TYPHIMURIUM, Strain/Indicator: TA102, Metabolic Activation: NONE, Method: PREINCUBATION
[6] = Test System: AMES SALMONELLA TYPHIMURIUM, Strain/Indicator: TA104, Metabolic Activation: NONE, Method: PREINCUBATION
[7] = Test System: AMES SALMONELLA TYPHIMURIUM, Strain/Indicator: TA1535, Metabolic Activation: NONE, Method: PREINCUBATION
[8] = Test System: AMES SALMONELLA TYPHIMURIUM, Strain/Indicator: TA1537, Metabolic Activation: NONE, Method: PREINCUBATION

Measured: mutagenic call

O=C(O)c1ccc(O)cc1
inactive: [1] inactive; negative | [2] inactive; negative | Test System: AMES SALMONELLA TYPHIMURIUM, Strain/Indicator: TA98, Metabolic Activation: RAT LIVER S-9, PHENOBARBITAL AND BETA-NAPHTHOFLAVONE, Method: PREINCUBATION inactive; negative | [3] inactive; negative | [4] inactive; negative | Test System: AMES SALMONELLA TYPHIMURIUM, Strain/Indicator: TA100, Metabolic Activation: RAT LIVER S-9, PHENOBARBITAL AND BETA-NAPHTHOFLAVONE, Method: PREINCUBATION inactive; negative | [5] inactive; negative | Test System: AMES SALMONELLA TYPHIMURIUM, Strain/Indicator: TA102, Metabolic Activation: RAT LIVER S-9, PHENOBARBITAL AND BETA-NAPHTHOFLAVONE, Method: PREINCUBATION inactive; negative | [6] inactive; negative | Test System: AMES SALMONELLA TYPHIMURIUM, Strain/Indicator: TA104, Metabolic Activation: RAT LIVER S-9, PHENOBARBITAL AND BETA-NAPHTHOFLAVONE, Method: PREINCUBATION inactive; negative | [7] inactive; negative | Test System: AMES SALMONELLA TYPHIMURIUM, Strain/Indicator: TA1535, Metabolic Activation: RAT LIVER S-9, PHENOBARBITAL AND BETA-NAPHTHOFLAVONE, Method: PREINCUBATION inactive; negative | [8] inactive; negative | Test System: AMES SALMONELLA TYPHIMURIUM, Strain/Indicator: TA1537, Metabolic Activation: RAT LIVER S-9, PHENOBARBITAL AND BETA-NAPHTHOFLAVONE, Method: PREINCUBATION inactive; negative | Test System: E. COLI, Strain/Indicator: CM561 LEXA, Metabolic Activation: NONE, Method: STANDARD PLATE inactive; negative | Test System: E. COLI, Strain/Indicator: CM611 UVRA/LEXA, Metabolic Activation: NONE, Method: STANDARD PLATE inactive; negative | Test System: E. COLI, Strain/Indicator: WP2 UVRA, Metabolic Activation: NONE, Method: STANDARD PLATE inactive; negative | Test System: E.COLI, Strain/Indicator: WP2UVRA/PKM101, Metabolic Activation: NONE, Method: PREINCUBATION inactive; negative | Test System: E.COLI, Strain/Indicator: WP2UVRA/PKM101, Metabolic Activation: RAT LIVER S-9, PHENOBARBITAL AND BETA-NAPHTHOFLAVONE, Method: PREINCUBATION inactive; negative | Test System: E.COLI, Strain/Indicator: WP2UVRA, Metabolic Activation: NONE, Method: PREINCUBATION inactive; negative | Test System: E.COLI, Strain/Indicator: WP2UVRA, Metabolic Activation: RAT LIVER S-9, PHENOBARBITAL AND BETA-NAPHTHOFLAVONE, Method: PREINCUBATION inactive; negative

NC(=O)N(CCCO)N=O
active: Test System: E. COLI B, Strain/Indicator: H/R30R, Metabolic Activation: NONE active; positive | Test System: E. COLI B, Strain/Indicator: HS30R, Metabolic Activation: NONE active; positive

O=C(O)CCC(=O)N(O)c1ccc(Cl)cc1
inactive: [2] inactive; negative | [4] inactive; negative
active: Test System: AMES SALMONELLA TYPHIMURIUM, Strain/Indicator: TA98, Metabolic Activation: RAT, LIVER, S-9, AROCLOR 1254, Method: STANDARD PLATE active; positive | Test System: AMES SALMONELLA TYPHIMURIUM, Strain/Indicator: TA100, Metabolic Activation: RAT, LIVER, S-9, AROCLOR 1254, Method: STANDARD PLATE active; positive

O=C=NCCCCCCN=C=O
inactive: Test System: AMES SALMONELLA TYPHIMURIUM, Strain/Indicator: TA98, Metabolic Activation: NONE, Method: DESICCATOR inactive; negative | [1] inactive; negative | Test System: AMES SALMONELLA TYPHIMURIUM, Strain/Indicator: TA98, Metabolic Activation: RAT LIVER S-9, AROCLOR 1254 (10%), Method: DESICCATOR inactive; negative | Test System: AMES SALMONELLA TYPHIMURIUM, Strain/Indicator: TA98, Metabolic Activation: RAT, LIVER, S-9, SODIUM PHENOBARBITAL AND 5,6-BENZOFLAVONE, Method: PREINCUBATION inactive; negative | Test System: AMES SALMONELLA TYPHIMURIUM, Strain/Indicator: TA100, Metabolic Activation: NONE, Method: DESICCATOR inactive; negative | [3] inactive; negative | Test System: AMES SALMONELLA TYPHIMURIUM, Strain/Indicator: TA100, Metabolic Activation: RAT LIVER S-9, AROCLOR 1254 (10%), Method: DESICCATOR inactive; negative | Test System: AMES SALMONELLA TYPHIMURIUM, Strain/Indicator: TA100, Metabolic Activation: RAT, LIVER, S-9, SODIUM PHENOBARBITAL AND 5,6-BENZOFLAVONE, Method: PREINCUBATION inactive; negative | [5] inactive; negative | Test System: AMES SALMONELLA TYPHIMURIUM, Strain/Indicator: TA102, Metabolic Activation: RAT, LIVER, S-9, SODIUM PHENOBARBITAL AND 5,6-BENZOFLAVONE, Method: PREINCUBATION inactive; negative | [6] inactive; negative | Test System: AMES SALMONELLA TYPHIMURIUM, Strain/Indicator: TA104, Metabolic Activation: RAT, LIVER, S-9, SODIUM PHENOBARBITAL AND 5,6-BENZOFLAVONE, Method: PREINCUBATION inactive; negative | Test System: AMES SALMONELLA TYPHIMURIUM, Strain/Indicator: TA1535, Metabolic Activation: NONE, Method: DESICCATOR inactive; negative | [7] inactive; negative | Test System: AMES SALMONELLA TYPHIMURIUM, Strain/Indicator: TA1535, Metabolic Activation: RAT LIVER S-9, AROCLOR 1254 (10%), Method: DESICCATOR inactive; negative | Test System: AMES SALMONELLA TYPHIMURIUM, Strain/Indicator: TA1535, Metabolic Activation: RAT, LIVER, S-9, SODIUM PHENOBARBITAL AND 5,6-BENZOFLAVONE, Method: PREINCUBATION inactive; negative | Test System: AMES SALMONELLA TYPHIMURIUM, Strain/Indicator: TA1537, Metabolic Activation: NONE, Method: DESICCATOR inactive; negative | [8] inactive; negative | Test System: AMES SALMONELLA TYPHIMURIUM, Strain/Indicator: TA1537, Metabolic Activation: RAT LIVER S-9, AROCLOR 1254 (10%), Method: DESICCATOR inactive; negative | Test System: AMES SALMONELLA TYPHIMURIUM, Strain/Indicator: TA1537, Metabolic Activation: RAT, LIVER, S-9, SODIUM PHENOBARBITAL AND 5,6-BENZOFLAVONE, Method: PREINCUBATION inactive; negative | Test System: CHINESE HAMSTER OVARY CELLS, Strain/Indicator: CHO/HGPRT/6-THIOGUANINE, Metabolic Activation: NONE, Method: DESICCATOR inactive; negative | Test System: CHINESE HAMSTER OVARY CELLS, Strain/Indicator: CHO/HGPRT/6-THIOGUANINE, Metabolic Activation: RAT LIVER S-9, AROCLOR 1254 (10%), Method: DESICCATOR inactive; negative | Test System: E. COLI, Strain/Indicator: WP2UVRA/PKM101, Metabolic Activation: NONE, Method: PREINCUBATION inactive; negative | Test System: E. COLI, Strain/Indicator: WP2UVRA/PKM101, Metabolic Activation: RAT, LIVER, S-9, SODIUM PHENOBARBITAL AND 5,6-BENZOFLAVONE, Method: PREINCUBATION inactive; negative | Test System: E. COLI, Strain/Indicator: WP2UVRA, Metabolic Activation: NONE, Method: PREINCUBATION inactive; negative | Test System: E. COLI, Strain/Indicator: WP2UVRA, Metabolic Activation: RAT, LIVER, S-9, SODIUM PHENOBARBITAL AND 5,6-BENZOFLAVONE, Method: PREINCUBATION inactive; negative

CC(=O)Oc1cccc2cccnc12
inactive: Test System: AMES SALMONELLA TYPHIMURIUM, Strain/Indicator: TA100, Metabolic Activation: S-9, Method: PREINCUBATION inactive; negative
